Assay results reported in US20240299385A1 (ReWind Therapeutics NV, priority 2021, published 2024).
pIC50: −log10 of the molar value.

Biological target: T1, human GPR17 receptor (Homo sapiens, UniProt Q13304)
T1 construct: host or cells: HEK-293
Experiment: Calcium mobilization functional assay (Fluo-8, FLIPR TETRA) in HEK-293 hGPR17 (Gα-q assay)
Type: cell-based
Details: antagonism of MDL29,951 (~EC80) induced Ca2+ signal; cell line (HEK-293 hGPR17 or HEK-293 Suchi5 hGPR17) not given
Procedure, shortened: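 Fluo-8-loaded HEK-293 hGPR17 cells (60 min dye loading, room temperature) were preincubated with compound for twenty minutes, then challenged with agonist MDL29,951 at ~EC80, 500 nM. Intracellular calcium release via Gα-q was recorded as FLIPR fluorescence for a further 2 minutes; compounds tested in duplicate.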

T1 sequence (Q13304 whole entry): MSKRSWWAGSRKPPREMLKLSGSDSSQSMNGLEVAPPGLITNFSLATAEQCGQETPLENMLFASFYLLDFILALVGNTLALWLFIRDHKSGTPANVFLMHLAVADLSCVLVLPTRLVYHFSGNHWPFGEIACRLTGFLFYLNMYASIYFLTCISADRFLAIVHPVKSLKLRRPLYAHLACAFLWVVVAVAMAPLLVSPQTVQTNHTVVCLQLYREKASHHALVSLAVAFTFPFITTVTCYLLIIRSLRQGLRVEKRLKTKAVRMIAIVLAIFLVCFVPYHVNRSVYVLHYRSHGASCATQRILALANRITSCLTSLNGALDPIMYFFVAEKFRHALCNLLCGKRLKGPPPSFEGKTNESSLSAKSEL

`N#Cc1ccc(NS(=O)(=O)c2c[nH]c(-c3ncccn3)c2)c(F)c1` [Cpd 094, N-(4-cyano-2-fluorophenyl)-5-(pyrimidin-2-yl)-1H-pyrrole-3-sulfonamide] was tested, and the pIC50 was 4.30 to 5.30.
For `COc1cccc(OC)c1-c1cc(S(=O)(=O)Nc2ccc(C#N)cc2F)c[nH]1` [Cpd 095, N-(4-cyano-2-fluoro-phenyl)-5-(2,6-dimethoxyphenyl)-1H-pyrrole-3-sulfonamide], the pIC50 was 5.30 to 6.30.
`N#Cc1ccc(NS(=O)(=O)c2c[nH]c(-c3ccc(C#N)cc3F)c2)c(F)c1` [Cpd 096, N,5-bis(4-cyano-2-fluoro-phenyl)-1H-pyrrole-3-sulfonamide] showed a pIC50 of 5.30 to 6.30.
`N#Cc1ccc(NS(=O)(=O)c2c[nH]c(-c3cc(F)cc(F)c3F)c2)c(F)c1` [Cpd 097, N-(4-cyano-2-fluoro-phenyl)-5-(2,3,5-trifluorophenyl)-1H-pyrrole-3-sulfonamide] showed a pIC50 of 5.30 to 6.30.
In the case of `N#Cc1ccc(NS(=O)(=O)c2c[nH]c(C3CCC3)c2)c(F)c1` [Cpd 098, N-(4-cyano-2-fluorophenyl)-5-cyclobutyl-1H-pyrrole-3-sulfonamide], the pIC50 was 5.30 to 6.30.
`O=S(=O)(Nc1ccc(C(F)(F)F)nc1)c1c[nH]c(-c2ccccc2)c1` [Cpd 099, 5-phenyl-N-[6-(trifluoromethyl)-3-pyridyl]-1H-pyrrole-3-sulfonamide] gave a pIC50 of 5.30 to 6.30.
`Cc1ncccc1NS(=O)(=O)c1c[nH]c(-c2ccccc2)c1` [Cpd 100, N-(2-methyl-3-pyridyl)-5-phenyl-1H-pyrrole-3-sulfonamide] was tested, and the pIC50 was 5.30 to 6.30.
`Cc1ccc(NS(=O)(=O)c2c[nH]c(-c3ccccc3)c2)c(C)n1` [Cpd 101, N-(2,6-dimethyl-3-pyridyl)-5-phenyl-1H-pyrrole-3-sulfonamide] showed a pIC50 of 5.30 to 6.30.
Compound `N#Cc1ccc(NS(=O)(=O)c2c[nH]c(-c3cccs3)c2)c(F)c1` [Cpd 102, N-(4-cyano-2-fluoro-phenyl)-5-(2-thienyl)-1H-pyrrole-3-sulfonamide] has a pIC50 greater than 6.30.
With `N#Cc1ccc(NS(=O)(=O)c2c[nH]c(-c3ccsc3)c2)c(F)c1` [Cpd 103, N-(4-cyano-2-fluoro-phenyl)-5-(3-thienyl)-1H-pyrrole-3-sulfonamide] the pIC50 was greater than 6.30.
`N#Cc1ccc(NS(=O)(=O)c2c[nH]c(-c3cc(F)cc(F)c3)c2)c(F)c1` [Cpd 104, N-(4-cyano-2-fluoro-phenyl)-5-(3,5-difluorophenyl)-1H-pyrrole-3-sulfonamide] gave a pIC50 of 5.30 to 6.30.
For `N#Cc1ccc(NS(=O)(=O)c2c[nH]c(-c3cccnc3F)c2)c(F)c1` [Cpd 105, N-(4-cyano-2-fluoro-phenyl)-5-(2-fluoro-3-pyridyl)-1H-pyrrole-3-sulfonamide], the pIC50 was 5.30 to 6.30.
With `N#Cc1ccc(NS(=O)(=O)c2c[nH]c(-c3ccccc3C#N)c2)c(F)c1` [Cpd 106, N-(4-cyano-2-fluoro-phenyl)-5-(2-cyanophenyl)-1H-pyrrole-3-sulfonamide] the pIC50 was 5.30 to 6.30.
Work on `N#Cc1ccc(NS(=O)(=O)c2c[nH]c(-c3cccc(CO)c3F)c2)c(F)c1` [Cpd 107, N-(4-cyano-2-fluoro-phenyl)-5-[2-fluoro-3-(hydroxymethyl)phenyl]-1H-pyrrole-3-sulfonamide] yielded a pIC50 of 5.30 to 6.30.
Work on `N#Cc1ccc(NS(=O)(=O)c2c[nH]c(-c3cc(CO)ccc3F)c2)c(F)c1` [Cpd 108, N-(4-cyano-2-fluoro-phenyl)-5-[2-fluoro-5-(hydroxymethyl)phenyl]-1H-pyrrole-3-sulfonamide] yielded a pIC50 of 5.30 to 6.30.
For `O=S(=O)(Nc1cc(F)c(F)cc1F)c1c[nH]c(-c2ccc(F)cc2)c1` [Cpd 109, 5-(4-fluorophenyl)-N-(2,4,5-trifluorophenyl)-1H-pyrrole-3-sulfonamide], the pIC50 was 4.30 to 5.30.
`O=S(=O)(Nc1cc(F)c(F)cc1F)c1c[nH]c(-c2cccc(F)c2)c1` [Cpd 110, 5-(3-fluorophenyl)-N-(2,4,5-trifluorophenyl)-1H-pyrrole-3-sulfonamide] was tested, and the pIC50 was 5.30 to 6.30.
`Cc1ccccc1-c1cc(S(=O)(=O)Nc2cc(F)c(F)cc2F)c[nH]1` [Cpd 111, 5-(o-tolyl)-N-(2,4,5-trifluorophenyl)-1H-pyrrole-3-sulfonamide] showed a pIC50 of 5.30 to 6.30.
For `O=S(=O)(Nc1ccc2ncccc2c1)c1c[nH]c(-c2ccccc2)c1` [Cpd 112, 5-phenyl-N-(6-quinolyl)-1H-pyrrole-3-sulfonamide], the pIC50 was 5.30 to 6.30.
For `O=S(=O)(Nc1cc(F)c(C(F)(F)F)cc1F)c1c[nH]c(-c2ccc(F)cc2)c1` [Cpd 113, N-[2,5-difluoro-4-(trifluoromethyl)phenyl]-5-(4-fluorophenyl)-1H-pyrrole-3-sulfonamide], the pIC50 was 5.30 to 6.30.
`O=S(=O)(Nc1cc(F)c(C(F)(F)F)cc1F)c1c[nH]c(-c2cccc(F)c2)c1` [Cpd 114, N-[2,5-difluoro-4-(trifluoromethyl)phenyl]-5-(3-fluorophenyl)-1H-pyrrole-3-sulfonamide] gave a pIC50 of 5.30 to 6.30.
`O=S(=O)(Nc1ccc(OCCF)cc1F)c1c[nH]c(-c2ccccc2F)c1` [Cpd 115, N-[2-fluoro-4-(2-fluoroethoxy)phenyl]-5-(2-fluorophenyl)-1H-pyrrole-3-sulfonamide] was tested, and the pIC50 was 4.30 to 5.30.
For `COc1nc(OC(F)F)c(F)cc1NS(=O)(=O)c1c[nH]c(-c2ccccc2F)c1` [Cpd 116, N-[6-(difluoromethoxy)-5-fluoro-2-methoxy-3-pyridyl]-5-(2-fluorophenyl)-1H-pyrrole-3-sulfonamide], the pIC50 was greater than 6.30.
Work on `COc1ccc(F)c(-c2cc(S(=O)(=O)Nc3cc(F)c(C(F)(F)F)cc3F)c[nH]2)c1` [Cpd 117, N-[2,5-difluoro-4-(trifluoromethyl)phenyl]-5-(2-fluoro-5-methoxy-phenyl)-1H-pyrrole-3-sulfonamide] yielded a pIC50 of 5.30 to 6.30.
For `Cc1ccccc1-c1cc(S(=O)(=O)Nc2cc(F)c(C(F)(F)F)cc2F)c[nH]1` [Cpd 118, N-[2,5-difluoro-4-(trifluoromethyl)phenyl]-5-(o-tolyl)-1H-pyrrole-3-sulfonamide], the pIC50 was 5.30 to 6.30.
Compound `O=S(=O)(Nc1cc(F)c(C(F)(F)F)cc1F)c1c[nH]c(-c2c(F)cccc2F)c1` [Cpd 119, 5-(2,6-difluorophenyl)-N-[2,5-difluoro-4-(trifluoromethyl)phenyl]-1H-pyrrole-3-sulfonamide] has a pIC50 greater than 6.30.
With `O=S(=O)(Nc1ccc(F)cc1F)c1c[nH]c(-c2cccc(F)c2)c1` [Cpd 120, N-(2,4-difluorophenyl)-5-(3-fluorophenyl)-1H-pyrrole-3-sulfonamide] the pIC50 was 4.30 to 5.30.
Work on `O=S(=O)(Nc1ccc(F)cc1F)c1c[nH]c(-c2ccccn2)c1` [Cpd 122, N-(2,4-difluorophenyl)-5-(2-pyridyl)-1H-pyrrole-3-sulfonamide] yielded a pIC50 of 4.30 to 5.30.
In the case of `O=S(=O)(Nc1ccc(C(F)(F)F)cc1F)c1c[nH]c(-c2ccccn2)c1` [Cpd 123, N-[2-fluoro-4-(trifluoromethyl)phenyl]-5-(2-pyridyl)-1H-pyrrole-3-sulfonamide], the pIC50 was 5.30 to 6.30.
`O=S(=O)(Nc1cc(F)c(C(F)(F)F)cc1F)c1c[nH]c(-c2ccccn2)c1` [Cpd 124, N-[2,5-difluoro-4-(trifluoromethyl)phenyl]-5-(2-pyridyl)-1H-pyrrole-3-sulfonamide] gave a pIC50 greater than 6.30.
Work on `O=S(=O)(Nc1cccc(F)c1)c1c[nH]c(-c2ccccn2)c1` [Cpd 125, N-(3-fluorophenyl)-5-(2-pyridyl)-1H-pyrrole-3-sulfonamide] yielded a pIC50 of 4.30 to 5.30.
`Cc1nc(Cl)ccc1NS(=O)(=O)c1c[nH]c(-c2ccccc2)c1` [Cpd 126, N-(6-chloro-2-methyl-3-pyridyl)-5-phenyl-1H-pyrrole-3-sulfonamide] gave a pIC50 of 5.30 to 6.30.
`Cc1ccc(NS(=O)(=O)c2c[nH]c(-c3ccccc3)c2)c(Cl)n1` [Cpd 127, N-(2-chloro-6-methyl-3-pyridyl)-5-phenyl-1H-pyrrole-3-sulfonamide] showed a pIC50 of 4.30 to 5.30.
`COc1nc(C)ccc1NS(=O)(=O)c1c[nH]c(-c2ccccc2)c1` [Cpd 128, N-(2-methoxy-6-methyl-3-pyridyl)-5-phenyl-1H-pyrrole-3-sulfonamide] gave a pIC50 of 4.30 to 5.30.
In the case of `Cc1ccnc(C)c1NS(=O)(=O)c1c[nH]c(-c2ccccc2)c1` [Cpd 129, N-(2,4-dimethyl-3-pyridyl)-5-phenyl-1H-pyrrole-3-sulfonamide], the pIC50 was 5.30 to 6.30.
`COCCOc1ccc(NS(=O)(=O)c2c[nH]c(-c3ccccc3F)c2)c(F)c1` [Cpd 130, N-[2-fluoro-4-(2-methoxyethoxy)phenyl]-5-(2-fluorophenyl)-1H-pyrrole-3-sulfonamide] was tested, and the pIC50 was 4.30 to 5.30.
With `O=S(=O)(Nc1cc(F)c(F)cc1F)c1c[nH]c(-c2c(F)cccc2F)c1` [Cpd 131, 5-(2,6-difluorophenyl)-N-(2,4,5-trifluorophenyl)-1H-pyrrole-3-sulfonamide] the pIC50 was 5.30 to 6.30.
With `O=S(=O)(Nc1cc(F)c(C(F)(F)F)cc1F)c1c[nH]c(C2CCCC2)c1` [Cpd 132, 5-cyclopentyl-N-[2,5-difluoro-4-(trifluoromethyl)phenyl]-1H-pyrrole-3-sulfonamide] the pIC50 was 5.30 to 6.30.
Compound `O=S(=O)(Nc1ncc(F)cc1F)c1c[nH]c(-c2ccccc2F)c1` [Cpd 133, N-(3,5-difluoro-2-pyridyl)-5-(2-fluorophenyl)-1H-pyrrole-3-sulfonamide] has a pIC50 of 4.30 to 5.30.
`COc1cc(Cl)cnc1NS(=O)(=O)c1c[nH]c(-c2ccccc2)c1` [Cpd 134, N-(5-chloro-3-methoxy-2-pyridyl)-5-phenyl-1H-pyrrole-3-sulfonamide] was tested, and the pIC50 was 5.30 to 6.30.
Compound `Cc1nc(C(F)(F)F)ccc1NS(=O)(=O)c1c[nH]c(-c2ccccc2)c1` [Cpd 135, N-[2-methyl-6-(trifluoromethyl)-3-pyridyl]-5-phenyl-1H-pyrrole-3-sulfonamide] has a pIC50 of 5.30 to 6.30.
With `Cc1cnc(NS(=O)(=O)c2c[nH]c(-c3ccccc3)c2)c(F)c1` [Cpd 136, N-(3-fluoro-5-methyl-2-pyridyl)-5-phenyl-1H-pyrrole-3-sulfonamide] the pIC50 was 5.30 to 6.30.
Work on `O=S(=O)(Nc1cc(F)c(F)cc1F)c1c[nH]c(-c2ccccc2)c1` [Cpd 137, 5-phenyl-N-(2,4,5-trifluorophenyl)-1H-pyrrole-3-sulfonamide] yielded a pIC50 of 5.30 to 6.30.
`O=S(=O)(Nc1ccc(C(F)(F)F)cn1)c1c[nH]c(-c2ccccc2)c1` [Cpd 138, 5-phenyl-N-[5-(trifluoromethyl)-2-pyridyl]-1H-pyrrole-3-sulfonamide] was tested, and the pIC50 was 4.30 to 5.30.
